In assay [1] the test system is Plasmodium falciparum. Kind of assay: In vitro inhibitory concentration against chloroquine-resistant Plasmodium falciparum; Not active. The format is functional, organism-based.
The subject of assay [2] is Plasmodium falciparum. Kind of assay: In vitro inhibitory concentration against chloroquine-sensitive Plasmodium falciparum; Not active. The format is functional, organism-based.

With `COc1ccc(N)cc1`, the IC50 result in the assay with Plasmodium falciparum [1] and in the assay on Plasmodium falciparum [2] was “Not Active” each time.

In the case of `Cl.N=C(N)c1ccc(N)cc1`, the IC50 entry with Plasmodium falciparum [1] and in the assay with Plasmodium falciparum [2] was “Not Active” throughout.

For `CN` [METHYLAMINE], the IC50 entry in the assay on Plasmodium falciparum [1] and in the assay with Plasmodium falciparum [2] was “Not Active” each time.

On to `CCOC(=O)c1ccc(N2CCN(c3ccc(C(=O)OCC)cc3)CC2)cc1`, for which the IC50 entry in the assay on Plasmodium falciparum [1] and in the assay with Plasmodium falciparum [2] was “Not Active” each time.

`Nc1ccccc1` [ANILINE]: the IC50 result with Plasmodium falciparum [1] and with Plasmodium falciparum [2] was “Not Active” in each case.

With `CN1CCN(C)C1c1ccc(N2CCN(c3ccc(C4N(C)CCN4C)cc3)CC2)cc1`, the IC50 result in the assay on Plasmodium falciparum [1] and in the assay with Plasmodium falciparum [2] was “Not Active” in each case.

The values are drawn from ChEMBL document CHEMBL1148226, “Evidences for the formation of bisbenzamidine-heme complexes in cell-free systems” (Bioorg Med Chem Lett, 2004).
